Patent US20240400512A1, “ANALOGS OF N,N,N-TRIMETHYL-4-PHOSPHORYLOXYTRYPTAMINE” (Terran Biosciences Inc., priority 2021, published 2024)

Assay: Metabolic stability in human liver microsomes
Type: in vitro ADME
Details: for CLint (μL/min/mg protein) / t1/2: NADPH; for CLint (μL/min/mg protein) / t1/2 / half-life at 0.25 μM / microsomal CLint at 0.25 μM: 37° C.; for Minus cofactor control (% of 0 min): incubation without cofactor, comment: possible chemical instability or non-cofactor dependent enzymatic degradation; for half-life at 0.25 μM / microsomal CLint at 0.25 μM: pH 7.4, NADPH; for microsomal CLint at 0.25 μM: read-out: CLint (μL/min/mg protein); for half-life and intrinsic clearance compared to the respective reference compounds / in vitro clearance compared with 4-OH-Trimethyltryptamine iodide (reference compound A) / in vitro clearance compared with 4-OH-Dimethylethyltryptamine iodide (reference compound B): based on Table 2
Procedure: Microsomal Assay: Human liver microsomes (20 mg/mL) are obtained. B-nicotinamide adenine dinucleotide phosphate, reduced form (NADPH), magnesium chloride (MgCl2), and dimethyl sulfoxide (DMSO) are purchased from Sigma-Aldrich.
Determination of Metabolic Stability: 7.5 mM stock solutions of test compounds are prepared in DMSO. […] The diluted microsomes are added to wells of a 96-well deep-well polypropylene plate in triplicate. […] Reactions are initiated by addition of pre-warmed NADPH solution. The final reaction volume is 0.5 mL and contains 4.0 mg/mL human liver microsomes, 0.25 μM test compound, 2 mM NADPH in 0.1 M potassium phosphate buffer, pH 7.4, and 3 mM MgCl2. The reaction mixtures are incubated at 37° C., and 50 pL aliquots are removed at 0, 5, 10, 20, and 30 min or other suitable interval and added to shallow-well 96-well plates containing 50 pL of ice-cold CAN (acetonitrile) with internal standard to stop the reactions. The plates are stored at 4° C. for 20 minutes after which 100 pL of water is added to the wells of the plate before centrifugation to pellet precipitated proteins. Supernatants are transferred to another 96-well plate and analysed for amounts of the test compound remaining by LC-MS/MS using, for example, an Applied Bio-systems API 4000®) mass spectrometer. The same procedure is followed for the non-deuterated counterparts of the test compounds and for the positive control, 7-ethoxy coumarin (1 μM). Testing can be done in triplicate.
Data analysis: The in vitro T1/2s for the test compounds is calculated from the slopes of the linear regression of % test compound remaining (In) vs incubation time.
where k=−[slope of linear regression of % parent remaining (In) vs incubation time. The apparent intrinsic clearance is calculated using the following equation: […]
Data analysis can be performed using Microsoft Excel® Software.

Row | SMILES | CLint (μL/min/mg protein) | t1/2 [min] | Minus cofactor control (% of 0 min) | half-life at 0.25 μM [h] | microsomal CLint at 0.25 μM [µL/min/mg] | half-life and intrinsic clearance compared to the respective reference compounds | in vitro clearance compared with 4-OH-Trimethyltryptamine iodide (reference compound A) | in vitro clearance compared with 4-OH-Dimethylethyltryptamine iodide (reference compound B)
1 | CCC[N+](C)(C)CCc1c[nH]c2cccc(OC(C)=O)c12.[I-] [reference compound F, 4-OAc-Dimethylpropyltryptamine iodide, reference compound] | 62.7 | 22.1 | Minus cofactor control low (27% of 0 min). | – | – | – | – | –
2 | [2H]C([2H])(c1c[nH]c2cccc(O)c12)C([2H])([2H])[N+](C)(C)CCC.[I-] [Compound 3, 3-(2-(Dimethyl(propyl)-λ^4-azaneyl)ethyl-1,1,2,2-d4)-4-hydroxy-1H-indole iodide] | – | – | – | 16.2 | 1.42 | – | – | –
3 | [2H]C([2H])(c1c[nH]c2cccc(OC(C)=O)c12)C([2H])([2H])[N+](C)(C)C.[I-] [Compound 7, 4-Acetoxy-3-(2-(trimethyl-λ^4-azaneyl)ethyl-1,1,2,2-d4)-1H-indole iodide] | – | – | Minus cofactor control low (52% of 0 min). | 0.778 | 29.7 | exhibit differences in half-life and intrinsic clearance | – | –
4 | [2H]C([2H])(c1c[nH]c2cccc(O)c12)C([2H])([2H])[N+](C)(C)C.[I-] [Compound 1, 4-Hydroxy-3-(2-(trimethyl-λ^4-azaneyl)ethyl-1,1,2,2-d4)-1H-indole iodide] | – | – | – | 4.12 | 5.6 | – | significantly lower in vitro clearance | –
5 | CC[N+](C)(C)CCc1c[nH]c2cccc(OC(C)=O)c12.[I-] [reference compound E, 4-OAc-Dimethylethyltryptamine iodide, reference compound] | 46.4 | 29.9 | Minus cofactor control low (38% of 0 min). | – | – | – | – | –
6 | [2H]C([2H])(c1c[nH]c2cccc(OC(C)=O)c12)C([2H])([2H])[N+](C)(C)CC.[I-] [Compound 8, 4-Acetoxy-3-(2-(ethyldimethyl-λ^4-azaneyl)ethyl-1,1,2,2-d4)-1H-indole iodide] | – | – | Minus cofactor control low (37% of 0 min). | 0.477 | 48.4 | exhibit differences in half-life and intrinsic clearance | – | –
7 | [2H]C([2H])(c1c[nH]c2cccc(OC(C)=O)c12)C([2H])([2H])[N+](C([2H])([2H])[2H])(C([2H])([2H])[2H])C([2H])([2H])[2H].[I-] [Compound 10, 4-Acetoxy-3-(2-(tris(methyl-d3)-λ^4-azaneyl)ethyl-1,1,2,2-d4)-1H-indole iodide] | – | – | Minus cofactor control low (44% of 0 min). | 0.775 | 29.8 | exhibit differences in half-life and intrinsic clearance | – | –
8 | CC[N+](C)(C)CCc1c[nH]c2cccc(O)c12.[I-] [reference compound B, 4-OH-Dimethylethyltryptamine iodide, reference compound] | 5.41 | 256 | – | – | – | – | – | –
9 | [2H]C([2H])(c1c[nH]c2cccc(OC(C)=O)c12)C([2H])([2H])[N+](C)(C)CCC.[I-] [Compound 9, 4-Acetoxy-3-(2-(dimethyl(propyl)-λ^4-azaneyl)ethyl-1,1,2,2-d4)-1H-indole iodide] | – | – | Minus cofactor control low (20% of 0 min). | 0.312 | 74.3 | exhibit differences in half-life and intrinsic clearance | – | –
10 | [2H]C([2H])(c1c[nH]c2cccc(O)c12)C([2H])([2H])[N+](C)(C)CC.[I-] [Compound 2, 3-(2-(Ethyldimethyl-λ^4-azaneyl)ethyl-1,1,2,2-d4)-4-hydroxy-1H-indole iodide] | – | – | – | 8.23 | 2.81 | – | – | significantly lower in vitro clearance
11 | [2H]C([2H])(c1c[nH]c2cccc(O)c12)C([2H])([2H])[N+](C([2H])([2H])[2H])(C([2H])([2H])[2H])C([2H])([2H])[2H].[I-] [Compound 4, 4-Hydroxy-3-(2-(tris(methyl-d3)-λ^4-azaneyl)ethyl-1,1,2,2-d4)-1H-indole iodide] | – | – | – | 57.7 | 0.401 | – | significantly lower in vitro clearance | –
12 | C[N+](C)(C)CCc1c[nH]c2cccc(O)c12.[I-] [reference compound A, 4-OH-Trimethyltryptamine iodide, reference compound] | 6.81 | 204 | – | – | – | – | – | –
13 | [2H]C([2H])(c1c[nH]c2cccc(O)c12)C([2H])([2H])[N+](C)(C([2H])([2H])[2H])C([2H])([2H])[2H].[I-] [Compound 5, 4-Hydroxy-3-(2-(methylbis(methyl-d3)-λ^4-azaneyl)ethyl-1,1,2,2-d4)-1H-indole iodide] | – | – | – | 101 | 0.228 | – | significantly lower in vitro clearance | –
14 | COc1ccc2c(c1)[C@]13CCCC[C@@H]1[C@H](C2)N(C)CC3 [dextromethorphan, reference compound] | 54.9 | 25.3 | – | – | – | – | – | –
15 | [2H]C([2H])(c1c[nH]c2cccc(OC(C)=O)c12)C([2H])([2H])[N+](C)(C([2H])([2H])[2H])C([2H])([2H])[2H].[I-] [Compound 11, 4-Acetoxy-3-(2-(methylbis(methyl-d3)-λ^4-azaneyl)ethyl-1,1,2,2-d4)-1H-indole iodide] | – | – | Minus cofactor control low (51% of 0 min). | 0.797 | 29 | exhibit differences in half-life and intrinsic clearance | – | –
16 | CC(=O)Oc1cccc2[nH]cc(CC[N+](C)(C)C)c12.[I-] [reference compound D, 4-OAc-Trimethyltryptamine iodide, reference compound] | 28.3 | 48.9 | Minus cofactor control low (51% of 0 min). | – | – | – | – | –
17 | [2H]C([2H])(c1c[nH]c2cccc(OC(C)=O)c12)C([2H])([2H])[N+](CC)(C([2H])([2H])[2H])C([2H])([2H])[2H].[I-] [Compound 12, 4-Acetoxy-3-(2-(ethylbis(methyl-d3)-λ^4-azaneyl)ethyl-1,1,2,2-d4)-1H-indole iodide] | – | – | Minus cofactor control low (40% of 0 min). | 0.558 | 41.4 | exhibit differences in half-life and intrinsic clearance | – | –
18 | [2H]C([2H])(c1c[nH]c2cccc(O)c12)C([2H])([2H])[N+](CC)(C([2H])([2H])[2H])C([2H])([2H])[2H].[I-] [Compound 6, 3-(2-(Ethylbis(methyl-d3)-λ^4-azaneyl)ethyl-1,1,2,2-d4)-4-hydroxy-1H-indole iodide] | – | – | – | 5.28 | 4.38 | – | – | significantly lower in vitro clearance
